According to US20060057073A1, “Wet granulation process” (Pari GmbH, priority 2002, published 2006):

Tests used:
[1] = Particle size by laser diffraction (Malvern MasterSizer 2000, dry dispersing); assay type: physicochemical; details: mean diameter of the volume distribution; mean of three measurements
[2] = Bulk density according to Ph. Eur.; assay type: physicochemical
[3] = base; cited from earlier work
[4] = drug substance as free acid; cited from earlier work

Aqueous solubility (Aqueous solubility)	Aqueous solubility (in words) (Aqueous solubility; in water)	SMILES	D50% (laser diffraction) [1]	Bulk density [2]	pK [3]	intrinsic pH [4]
–	–	COc1ccc(Cc2nccc3cc(OC)c(OC)cc23)cc1OC [papaverine]	28.5 μm	0.41 g/mL	8.07	–
<0.1%	nearly insoluble	C[C@H]1[C@H](NC(=O)/C(=N\OC(C)(C)C(=O)O)c2csc(N)n2)C(=O)N1S(=O)(=O)O [Aztreonam]	–	0.49 g/mL	–	about 1
